Test results from the supplement of paper PMC10307832.

What was measured:
Assay in all cases: relative viability (nuclei count vs DMSO), 5 days (fraction); higher = more cells survive
NCI-H1666 = system: NCI-H1666
Summary of the method: (§1)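 Relative viability was taken as the ratio of nuclei in treated wells to nuclei in vehicle wells. Lung cancer cell lines in 1536-well plates received compounds by pin tool one day after seeding, either one drug alone or a fixed anchor-drug dose plus five library-drug doses (not always all listed) in √10 steps. Nuclei were counted on 4× images after 5 days of treatment, and values are medians of duplicate plates.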

NCI-H322M = system: NCI-H322M
Summary of the method: as §1

NCI-H1792 = system: NCI-H1792
Summary of the method: as §1

NCI-H1944 = system: NCI-H1944
Summary of the method: as §1

HCC-827 = system: HCC-827
Summary of the method: as §1

RERF-LC-KJ = system: RERF-LC-KJ
Summary of the method: as §1

LCLC-103H = system: LCLC-103H
Summary of the method: as §1

NCI-H358 = system: NCI-H358
Summary of the method: as §1

NCI-H1793 = system: NCI-H1793
Summary of the method: as §1

ABC-1 = system: ABC-1
Summary of the method: as §1

NCI-H520 = system: NCI-H520
Summary of the method: as §1

LU99A = system: LU99A
Summary of the method: as §1

NCI-H2347 = system: NCI-H2347
Summary of the method: as §1

NCI-H1395 = system: NCI-H1395
Summary of the method: as §1

CAL-12T = system: CAL-12T
Summary of the method: as §1

NCI-H2126 = system: NCI-H2126
Summary of the method: as §1

SK-LU-1 = system: SK-LU-1
Summary of the method: as §1

NCI-H1755 = system: NCI-H1755
Summary of the method: as §1

NCI-H3122 = system: NCI-H3122
Summary of the method: as §1

LXF-289 = system: LXF-289
Summary of the method: as §1

HCC-44 = system: HCC-44
Summary of the method: as §1

Compound `Nc1cccc2c1CN(C1CCC(=O)NC1=O)C2=O` (stereo not drawn) [Lenalidomide] + Cc1nc(NC(=O)N2CCC[C@H]2C(N)=O)sc1-c1ccnc(C(C)(C)C(F)(F)F)c1 [Alpelisib] (partner 2 µM) has a relative viability (NCI-H1666; first compound 0.253 µM) of 1.04, a relative viability (NCI-H1666; first compound 0.8 µM) of 0.83 and a relative viability (NCI-H1666; first compound 2.53 µM) of 0.882. For the same compound, the relative viability (NCI-H1666; first compound 8 µM) was 1.04, the relative viability (NCI-H322M; first compound 0.253 µM) was 0.745 and the relative viability (NCI-H322M; first compound 0.8 µM) was 0.887. For the same compound, the relative viability (NCI-H322M; first compound 2.53 µM) was 0.837, the relative viability (NCI-H322M; first compound 8 µM) was 0.66 and the relative viability (NCI-H1792; first compound 0.253 µM) was 0.755. It also gave a relative viability (NCI-H1792; first compound 0.8 µM) of 0.604, a relative viability (NCI-H1792; first compound 2.53 µM) of 0.82 and a relative viability (NCI-H1792; first compound 8 µM) of 0.612. For the same compound, the relative viability (NCI-H1944; first compound 0.253 µM) was 0.885, the relative viability (NCI-H1944; first compound 0.8 µM) was 0.934 and the relative viability (NCI-H1944; first compound 2.53 µM) was 0.897. The relative viability (NCI-H1944; first compound 8 µM) was 0.654, the relative viability (HCC-827; first compound 0.253 µM) was 0.978 and the relative viability (HCC-827; first compound 0.8 µM) was 1.06. It also gave a relative viability (HCC-827; first compound 2.53 µM) of 0.96, a relative viability (HCC-827; first compound 8 µM) of 0.846 and a relative viability (RERF-LC-KJ; first compound 0.253 µM) of 0.624. It also gave a relative viability (RERF-LC-KJ; first compound 0.8 µM) of 0.904, a relative viability (RERF-LC-KJ; first compound 2.53 µM) of 0.752 and a relative viability (RERF-LC-KJ; first compound 8 µM) of 0.637. For the same compound, the relative viability (LCLC-103H; first compound 0.253 µM) was 0.993, the relative viability (LCLC-103H; first compound 0.8 µM) was 1 and the relative viability (LCLC-103H; first compound 2.53 µM) was 0.862. It also gave a relative viability (LCLC-103H; first compound 8 µM) of 0.674, a relative viability (NCI-H358; first compound 0.253 µM) of 0.902 and a relative viability (NCI-H358; first compound 0.8 µM) of 0.834. For the same compound, the relative viability (NCI-H358; first compound 2.53 µM) was 0.838, the relative viability (NCI-H358; first compound 8 µM) was 1.06 and the relative viability (NCI-H1793; first compound 0.253 µM) was 0.858. The relative viability (NCI-H1793; first compound 0.8 µM) was 0.828, the relative viability (NCI-H1793; first compound 2.53 µM) was 0.673 and the relative viability (NCI-H1793; first compound 8 µM) was 0.57. The relative viability (ABC-1; first compound 0.253 µM) was 0.948, the relative viability (ABC-1; first compound 0.8 µM) was 0.996 and the relative viability (ABC-1; first compound 2.53 µM) was 1.02. The relative viability (ABC-1; first compound 8 µM) was 1.01, the relative viability (NCI-H520; first compound 0.253 µM) was 0.88 and the relative viability (NCI-H520; first compound 0.8 µM) was 0.922. It also gave a relative viability (NCI-H520; first compound 2.53 µM) of 1.15, a relative viability (NCI-H520; first compound 8 µM) of 0.779 and a relative viability (LU99A; first compound 0.253 µM) of 0.47. The relative viability (LU99A; first compound 0.8 µM) was 0.501, the relative viability (LU99A; first compound 2.53 µM) was 0.501 and the relative viability (LU99A; first compound 8 µM) was 0.317. The relative viability (NCI-H2347; first compound 0.253 µM) was 1.06, the relative viability (NCI-H2347; first compound 0.8 µM) was 0.957 and the relative viability (NCI-H2347; first compound 2.53 µM) was 0.964. The relative viability (NCI-H2347; first compound 8 µM) was 0.875, the relative viability (NCI-H1395; first compound 0.253 µM) was 0.946 and the relative viability (NCI-H1395; first compound 2.53 µM) was 1.06. The relative viability (NCI-H1395; first compound 8 µM) was 0.948, the relative viability (CAL-12T; first compound 0.253 µM) was 1.09 and the relative viability (CAL-12T; first compound 0.8 µM) was 1.33. The relative viability (CAL-12T; first compound 2.53 µM) was 1.52, the relative viability (CAL-12T; first compound 8 µM) was 1.36 and the relative viability (NCI-H2126; first compound 0.253 µM) was 0.735. It also gave a relative viability (NCI-H2126; first compound 0.8 µM) of 0.75, a relative viability (NCI-H2126; first compound 2.53 µM) of 0.646 and a relative viability (NCI-H2126; first compound 8 µM) of 0.55. For the same compound, the relative viability (SK-LU-1; first compound 0.253 µM) was 0.913, the relative viability (SK-LU-1; first compound 0.8 µM) was 0.999 and the relative viability (SK-LU-1; first compound 2.53 µM) was 1.29. It also gave a relative viability (SK-LU-1; first compound 8 µM) of 1.07, a relative viability (NCI-H1755; first compound 0.253 µM) of 0.865 and a relative viability (NCI-H1755; first compound 0.8 µM) of 0.913. For the same compound, the relative viability (NCI-H1755; first compound 2.53 µM) was 0.985, the relative viability (NCI-H1755; first compound 8 µM) was 0.8 and the relative viability (NCI-H3122; first compound 0.253 µM) was 0.779. The relative viability (NCI-H3122; first compound 0.8 µM) was 0.961, the relative viability (NCI-H3122; first compound 2.53 µM) was 0.797 and the relative viability (NCI-H3122; first compound 8 µM) was 0.659. For the same compound, the relative viability (LXF-289; first compound 0.253 µM) was 1.05, the relative viability (LXF-289; first compound 0.8 µM) was 1.05 and the relative viability (LXF-289; first compound 2.53 µM) was 1.11. It also gave a relative viability (LXF-289; first compound 8 µM) of 1.08, a relative viability (HCC-44; first compound 0.253 µM) of 0.865 and a relative viability (HCC-44; first compound 0.8 µM) of 0.594. The relative viability (HCC-44; first compound 2.53 µM) was 0.821 and the relative viability (HCC-44; first compound 8 µM) was 0.663.
